In patent US20240408100A1, “TREATMENT METHODS FOR SUBJECTS HAVING CANCER WITH A DYSREGULATED MAPK AND/OR PI3K PATHWAY” (TAIHO PHARMACEUTICAL CO., LTD., priority 2021, published 2024):

Key:
[1] = system: PTEN-mutated MFE-319 cells; experiment: dose-dependent apoptosis induction; assay type: cell-based, human; conditions: MFE-319, 48 hour, compared to control
MeWo = experiment: growth inhibition assay, NF1 mutant cell line; assay type: cell-based; conditions: Homo sapiens, melanoma, NF1 p.Q1336*
From the text: (§1) In order to investigate the growth inhibitory effect of Compound (1) in NF1 mutant cancer cell lines, the IC50 values of growth inhibition assay were obtained and compared then in Table 2.
(§2) In this experiment, to compare the growth inhibitory effect of Compound (1) with those of MAPK and PI3K signaling inhibitors, the IC50 values of trametinib (as a MEK inhibitor), and Alpelisib (as a PI3K inhibitor) were obtained and compared.

MDA-MB-231 = experiment: growth inhibition assay, NF1 mutant cell line; assay type: cell-based; conditions: Homo sapiens; MDA-MB-231, TN breast, NF1 p.T467Hfs*3
From the text: as §1, §2

RKO = experiment: growth inhibition assay, NF1 mutant cell line; assay type: cell-based; conditions: Homo sapiens, colon
From the text: as §1, §2

H1838 = experiment: growth inhibition assay, NF1 mutant cell line; assay type: cell-based; conditions: Homo sapiens, NCI-H1838; H1838, lung, NF1 p.N184Qfs*17
From the text: as §1, §2

MDA-MB-175VII = experiment: growth inhibition assay, NF1 mutant cell line; assay type: cell-based; conditions: Homo sapiens, ER+ breast, NF1 p.1679Dfs*21
From the text: as §1, §2

BT483 = experiment: growth inhibition assay, NF1 mutant cell line; assay type: cell-based; conditions: Homo sapiens, BT-483; BT483, ER+ breast, NF1 p.R1204W
From the text: as §1, §2

HCC202 = experiment: growth inhibition assay, NF1 mutant cell line; assay type: cell-based; conditions: HCC202, HER2+ breast, NF1 p.X465_splice
From the text: as §1, §2

HCT116 = experiment: growth inhibition assay, NF1 mutant cell line; assay type: cell-based; conditions: Homo sapiens, HCT-116; HCT116, colon, NF1 p.P678Rfs*10, p.P388T
From the text: as §1, §2

[2] = system: T47D cells (control and NF1 knockdown); experiment: immunoblotting of target inhibition and apoptosis induction; assay type: cell-based
Protocol: To investigate the mechanism of action of Compound (1) in inhibiting the growth of NF1 knockdown breast cancer cells, Compound (1), trametinib, Alpelisib, and fulvestrant were exposed to NF1-knockdown MCF7 and T47D cells at indicated final concentration for 24 hours. NF1, pPRAS40 Thr246, pYB1 Ser102, pS6RP Ser235/236, ERα, and cleaved PARP were detected by immunoblotting.

CC(C)(C)NCCNc1ccc(-c2nnc(C(F)(F)F)o2)nc1C1CCN(c2ncnc3c2C(C)(C)C(=O)N3)CC1 [Compound (1), 4-(4-(3-((2-(tert-butylamino)ethyl)amino)-6-(5-(trifluoromethyl)-1,3,4-oxadiazol-2-yl)pyridin-2-yl)piperidin-1-yl)-5,5-dimethyl-5H-pyrolo[2,3-d]pyrimidin-6(7H)-one]
levels of cleaved caspase-3 and cleaved PARP [1]: increased cleaved caspase-3 and cleaved PARP in a concentration dependent manner | IC50 (MeWo): 844 nM | IC50 (MDA-MB-231): 2810 nM | IC50 (RKO): 118 nM | IC50 (H1838): 344 nM | IC50 (MDA-MB-175VII): 70 nM | IC50 (BT483): 128 nM | IC50 (HCC202): 157 nM | IC50 (HCT116): 355 nM | apoptosis induction (cleaved PARP signal) ([2]; T47D NF1 knockdown cells versus control cells): remarkably higher level in NF1 knockdown cells than control cells | signals of pPRAS40, pYB1, and pS6RP (target inhibition) ([2]; T47D, control and NF1 knockdown, 24 hours, immunoblot): decreased the signals of pPRAS40, pYB1, and pS6RP in a concentration-dependent manner
